Measurements as given in patent US11213508B2, “Compositions comprising urolithins and uses thereof for the stimulation of insulin secretion” (Centre National de la Recherche Scientifique (CNRS), priority 2013, dated 2022).
Values joined by “and” are separate entries in the source; they are usually repeats but may differ in a detail not shown here. Equal values may be shown once.

Key:
[1] = tested on: INS-1 insulin-secreting β-cells; test: Glucose (8.3 mmol·L^−1)-stimulated insulin secretion in INS-1 cells (HTRF insulin assay); assay type: cell-based; settings: 8.3 mmol·L^−1 glucose; for activity at 2 µM / activity at 20 µM: Rattus norvegicus, INS1, 1 h, read-out: % control response (glucose-stimulated insulin secretion); for activity at 2 µM / activity at 20 µM / % control response (glucose-stimulated insulin secretion): control = glucose alone
Protocol: Cells were seeded in 24-well plates (4×10^5 cells per well) and were used for experiments after 5 days of culture.
(§1) Cells were incubated for 1 h (5% CO2, 37° C.) in KRB medium containing 8.3 mmol·L^−1 glucose (glucose-stimulated secretion) in the presence or absence of the compounds tested. At the end of the 1 h incubation period, the medium was sampled and stored at −20° C. until the insulin assay. Insulin concentration in cell supernatants was determined using the homogeneous time resolved fluorescence technology (HTRF), according to the manufacturer's instructions (HTRF insulin assay kit, Cisbio International, Bagnols-sur-Ceze, France). Briefly, two anti-insulin antibodies were used; one labelled with Eu^3+-Cryptate and one labelled with XL665 recognizing distinct epitopes. When these two fluorophores bind to insulin molecules, the two antibodies come into close proximity, allowing fluorescence resonance energy transfer (FRET) to occur between the Eu^3+-Cryptate and the XL665. This FRET increases proportionally with the insulin concentrations. All the experiments were performed at least in quadruplicate.
For the determination of insulin secretion, cells were incubated for 1 h (5% CO2, 37° C.) in KRB medium containing either 1.4 mmol·L^−1 glucose (low-glucose) or 8.3 mmol·L^−1 glucose (glucose-stimulated secretion) in the presence or absence of the compounds tested. At the end of the 1 h incubation period, mediums were sampled and stored at −20° C. until the insulin assay.

[2] = tested on: INS-1 insulin-secreting β-cells; settings: Youl et al., 2010; cited from earlier work
[3] = tested on: INS-1 insulin-secreting β-cells; test: Glibenclamide-stimulated insulin secretion in INS-1 cells; assay type: cell-based; settings: glibenclamide 0.01 μmol·L^−1
Protocol: The insulin-secreting cell line INS-1 (a gift from Professor C. B. Wollheim) was cultured in RPMI-1640, supplemented with 10% fetal calf serum (FCS), 100 U·mL^−1 penicillin, 100 μg·mL^−1 streptomycin, 2 mmol·L^−1 L-glutamine, 10 mmol·L^−1 HEPES, 1 mmol·L^−1 sodium pyruvate, and […] 2-mercaptoethanol, as previously described by Youl et al. (2010). Cells were seeded in 24-well plates (4×10^5 cells per well) and were used for experiments after 5 days of culture.
as §1, with “Before the treatment, RPMI medium was removed and the cells were washed twice with HEPES-balanced Krebs-Ringer bicarbonate buffer (KRB) containing (in mmol·L^−1): 123 NaCl, 5.4 KCl, 1.3 KH2PO4, 2.7 MgSO4, 2.9 CaCl2, 5 NaHCO3 and 20 HEPES, pH 7.5, with 2 g·L^−1 bovine serum albumin (KRB/BSA). Cells” for “Cells”
Material and methods were the same as described in example 1. For the determination of insulin secretion, cells were incubated for 1 h (5% CO2, 37° C.) in KRB medium containing 1.4 mmol·L^−1 glucose (low-glucose condition) and 0.01 μmol·L^−1 glibenclamide (glibenclamide-stimulated secretion), in the presence or absence of urolithins. At the end of the 1 h incubation period, the medium was sampled and stored at −20° C. until the insulin assay. Insulin concentration in cell supernatants was determined as described in Example 1.

| Structure (SMILES) | activity at 2 µM ([1]; compound 2 μM) [%] | activity at 20 µM ([1]; compound 20 μM) [%] | other results |
| --- | --- | --- | --- |
| O=C(O)Cc1ccc(O)c(O)c1 [3,4-dihydroxyphenylacetic acid] | 105 | 84 |  |
| O=C(O)CCc1cccc(O)c1 [3-(3′-hydroxyphenyl)propionic acid] | 98 | 103 |  |
| O=C(O)C(O)Cc1ccc(O)cc1 (stereo not drawn) [3-(4′-hydroxyphenyl)lactic acid] | 97 | 79 |  |
| COc1cc(C(=O)O)cc(O)c1O [3-O-Methylgallic acid] | 93 | 105 |  |
| O=C(O)Cc1cccc(O)c1 [3-hydroxyphenylacetic acid] | 98 | 104 |  |
| COc1c(O)cc(C(=O)O)cc1O [4-O-Methylgallic acid] | 104 | 86 |  |
| O=C(O)c1ccc(O)cc1 [4-hydroxybenzoic acid] | 96 | 98 |  |
| O=C(O)CNC(=O)c1ccc(O)cc1 [4′-hydroxyhippuric acid] |  |  | % control response (glucose-stimulated insulin secretion) ([1]; compound 2 μM): 98.00%; % control response (glucose-stimulated insulin secretion) ([1]; compound 20 μM): 111.00% |
| O=C(O)Cc1ccc(O)cc1 [4′-hydroxyphenylacetic acid] |  |  | % control response (glucose-stimulated insulin secretion) ([1]; compound 2 μM): 102.00% and 107.00%; % control response (glucose-stimulated insulin secretion) ([1]; compound 20 μM): 74.00% and 81.00% |
| O=C(O)C(O)c1ccc(O)cc1 (stereo not drawn) [4′hydroxymandelic acid] |  |  | % control response (glucose-stimulated insulin secretion) ([1]; compound 2 μM): 103.00%; % control response (glucose-stimulated insulin secretion) ([1]; compound 20 μM): 86.00% |
| O=C(O)/C=C/c1ccc(O)c(O)c1 [Caffeic acid] | 104 | 105 |  |
| O=C(O)CCc1ccc(O)c(O)c1 [Dihydrocaffeic acid] | 110 | 83 |  |
| COc1cc(CCC(=O)O)ccc1O [Dihydroferulic acid] | 106 | 103 |  |
| O=c1oc2c(O)c(O)cc3c(=O)oc4c(O)c(O)cc1c4c23 [Ellagic acid, reference compound] | 93.4 | 101 | ability to amplify glucose-stimulated insulin secretion ([1]; blind screening, 2 and 20 μM): not active |
| COc1cc(/C=C/C(=O)O)ccc1O [Ferulic acid] | 109 | 115 |  |
| COc1cc(/C=C/C(=O)NCC(=O)O)ccc1O [Feruloylglycine] | 102 | 102 |  |
| COc1cc(CC(=O)O)ccc1O [Homovanillic acid] | 93 | 83 |  |
| COc1ccc(/C=C/C(=O)NCC(=O)O)cc1O [Isoferuloylglycine] | 80 | 82 |  |
| O=C(O)[C@H]1O[C@@H](Oc2c(-c3ccc(O)cc3)oc3cc(O)cc(O)c3c2=O)[C@H](O)[C@@H](O)[C@@H]1O [Kaempferol-3 -glucuronide] |  |  | % control response (glucose-stimulated insulin secretion) ([1]; compound 2 μM): 111.00%; % control response (glucose-stimulated insulin secretion) ([1]; compound 20 μM): 104.00% |
| CC(=O)N[C@@H](CS)C(=O)O [N-acetyl cysteine] |  |  | prevention of H2O2-induced insulin secretion impairment [2]: not |
| Oc1cc(O)cc(O)c1 [Phloroglucinol] | 100 | 105 |  |
| O=C(O)c1ccc(O)c(O)c1 [Protocatechuic acid] | 108 | 92 |  |
| Oc1ccccc1O [Pyrocatechol] | 87 | 96 |  |
| Oc1cccc(O)c1O [Pyrogallol] | 93 | 98 |  |
| O=c1c(O)c(-c2ccc(O)c(O)c2)oc2cc(O)cc(O)c12 [Quercetin, reference compound] | 93.8 | 237 | prevention of H2O2-induced insulin secretion impairment [2]: able to prevent H2O2-induced insulin secretion impairment |
| O=C(O)[C@H]1O[C@@H](Oc2c(-c3ccc(O)c(O)c3)oc3cc(O)cc(O)c3c2=O)[C@H](O)[C@@H](O)[C@@H]1O [Quercetin-3 -glucuronide] |  |  | % control response (glucose-stimulated insulin secretion) ([1]; compound 2 μM): 89.00%; % control response (glucose-stimulated insulin secretion) ([1]; compound 20 μM): 103.00% |
| OCCc1ccc(O)cc1 [Tyrosol] | 86 | 89 |  |
| COc1ccc(Cl)cc1C(=O)NCCc1ccc(S(=O)(=O)NC(=O)NC2CCCCC2)cc1 [glibenclamide, reference compound] |  |  | increase of secretion as compared to low-glucose condition [3]: 4/6 |
| Oc1ccc(C=Cc2cc(O)cc(O)c2)cc1 [resveratrol] |  |  | prevention of H2O2-induced insulin secretion impairment [2]: not |
